Where a name gives a salt, the structure may show the parent alone.
Legend:
[1] = Encapsulation of mRNA nanoparticles with lipid amines using Ribogreen assay; assay type: physicochemical
How it was run: (§1)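 Ionizable lipid nanoparticles (IL1:DSPC:cholesterol:PEG-DMG-2K) formed by vortex mixing at pH 4, loaded with luciferase or CFTR mRNA at N:P 4.93, neutralized with TRIS pH 8.12, then modified with lipid amine SA50 at pH 7.5. Particle diameter and PDI read by DLS; mRNA encapsulation by Ribogreen assay.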

HeLa cells [2] = assay: Luciferase Protein Expression Assay in HeLa Cells; assay type: cell-based, Human; conditions: LNPs encapsulating Luciferase mRNA, 25 ng per well, N=4 wells; 5 h serum-free then 24 h; ONE-Glo
How it was run: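 HeLa cells received LNPs carrying luciferase mRNA (25 ng per well) or PBS in serum-free MEM for 5 h, then complete MEM for a further 24 h. Luciferase then read by ONE-Glo luminescence after lysis and reported as average RLU of 4 replicate wells.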

HeLa cells [3] = assay: CFTR Protein Expression Assay in HeLa Cells; assay type: cell-based, Human; conditions: LNPs encapsulating CFTR mRNA, N=4 wells; 5 h serum-free then 24 h; immunofluorescence vs PBS control
How it was run: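 HeLa cells dosed with CFTR mRNA LNPs (70 mM NaCl final buffer matrix) in serum-free MEM for 5 h, then complete MEM for 24 h. Fixed cells immunostained with anti-CFTR monoclonal and Alexa 488 secondary, imaged confocally; CFTR intensity per cell expressed as fold-change versus PBS buffer control, N=4 wells.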

[4] = Diameter and PDI from DLS measurements of mRNA nanoparticles with lipid amines; assay type: physicochemical
How it was run: as §1

[5] = CFTR mRNA nanoparticle with lipid amine
[6] = Luciferase mRNA nanoparticle modified with lipid amine

Row | Structure (SMILES) | % Encapsulation (Ribogreen) [1, 5] [%] | % Encapsulation (Ribogreen) [1, 6] [%] | Average Relative Light Units ± Standard Deviation (HeLa cells [2]) [Relative Light Units] | Average fold-change in CFTR signal intensity per cell compared to buffer control ± standard deviation (HeLa cells [3]) [fold-change] | Diameter (nm) [4, 5] [nm] | PDI [4, 5] | Diameter (nm) [4, 6] [nm] | PDI [4, 6]
1 | CC(C)CCC[C@@H](C)[C@H]1CC[C@H]2[C@@H]3CC=C4C[C@@H](OC(=O)N(CCCCNCCC(C)(C)N)CCC(C)(C)N)CC[C@]4(C)[C@H]3CC[C@]12C [SA78, (3S,8S,9S,10R,13R,14S,17R)-10,13-dimethyl-17-((R)-6-methylheptan-2-yl)-2,3,4,7,8,9,10,11,12,13,14,15,16,17-tetradecahydro-1H-cyclopenta[a]phenanthren-3-yl (3-amino-3-methylbutyl)(4-((3-amino-3-methylbutyl)amino)butyl)carbamate trihydrochloride] | 100 | 99.8 | 14341.8 ± 3497.6 | 11.3 ± 0.7 | 87.7 | 0.17 | 76 | 0.20
2 | CC(C)CCC[C@@H](C)[C@H]1CC[C@H]2[C@@H]3CC=C4C[C@@H](OC(=O)N(CCCCNCC(F)(F)CN)CC(F)(F)CN)CC[C@]4(C)[C@H]3CC[C@]12C [SA79, (3S,8S,9S,10R,13R,14S,17R)-10,13-dimethyl-17-((R)-6-methylheptan-2-yl)-2,3,4,7,8,9,10,11,12,13,14,15,16,17-tetradecahydro-1H-cyclopenta[a]phenanthren-3-yl (3-amino-2,2-difluoropropyl)(4-((3-amino-2,2-difluoropropyl)amino)butyl)carbamate trihydrochloride] | 97.9 | 97.0 | 105.1 ± 20 | 0.8 ± 0 | 78.4 | 0.13 | 74 | 0.18
3 | CC(C)CCC[C@@H](C)[C@H]1CC[C@H]2[C@@H]3CC=C4C[C@@H](OC(=O)N(CCCCCCN)CCCCCCN)CC[C@]4(C)[C@H]3CC[C@]12C [SA81, (3S,8S,9S,10R,13R,14S,17R)-10,13-Dimethyl-17-((R)-6-methylheptan-2-yl)-2,3,4,7,8,9,10,11,12,13,14,15,16,17-tetradecahydro-1H-cyclopenta[a]phenanthren-3-yl bis(6-aminohexyl)carbamate dihydrochloride] | 99.4 | 99.8 | 19619.8 ± 4362.6 | 4.4 ± 0.3 | 87.6 | 0.18 | 72 | 0.12
4 | CC[C@H](CC[C@@H](C)[C@H]1CC[C@H]2[C@@H]3CC=C4C[C@@H](OC(=O)N(CCCCCCN)CCCCCCN)CC[C@]4(C)[C@H]3CC[C@]12C)C(C)C [SA82, (3S,8S,9S,10R,13R,14S,17R)-17-((2R,5R)-5-Ethyl-6-methylheptan-2-yl)-10,13-dimethyl-2,3,4,7,8,9,10,11,12,13,14,15,16,17-tetradecahydro-1H-cyclopenta[a]phenanthren-3-yl bis(6-aminohexyl)carbamate dihydrochloride] | 99.4 | 99.1 | 33396.2 ± 4902.7 | 4.6 ± 0.2 | 80.7 | 0.13 | 73 | 0.11
5 | CC(C)CCC[C@@H](C)[C@H]1CC[C@H]2[C@@H]3CC=C4C[C@@H](OC(=O)N(CCCN)CCCCCCN)CC[C@]4(C)[C@H]3CC[C@]12C [SA83, (3S,8S,9S,10R,13R,14S,17R)-10,13-Dimethyl-17-((R)-6-methylheptan-2-yl)-2,3,4,7,8,9,10,11,12,13,14,15,16,17-tetradecahydro-1H-cyclopenta[a]phenanthren-3-yl (6-aminohexyl)(3-aminopropyl)carbamate dihydrochloride] | 99.8 | 99.3 | 35394.8 ± 5033.2 | 4.8 ± 0.3 | 82.3 | 0.15 | 75 | 0.14
6 | CC[C@H](CC[C@@H](C)[C@H]1CC[C@H]2[C@@H]3CC=C4C[C@@H](OC(=O)N(CCCN)CCCCCCN)CC[C@]4(C)[C@H]3CC[C@]12C)C(C)C [SA84, (3S,8S,9S,10R,13R,14S,17R)-17-((2R,5R)-5-Ethyl-6-methylheptan-2-yl)-10,13-dimethyl-2,3,4,7,8,9,10,11,12,13,14,15,16,17-tetradecahydro-1H-cyclopenta[a]phenanthren-3-yl (6-aminohexyl)(3-aminopropyl)carbamate dihydrochloride] | 99.5 | 99.9 | 29639.9 ± 7554 | 5.0 ± 0.2 | 82 | 0.13 | 74 | 0.16
7 | CC(C)CCC[C@@H](C)[C@H]1CC[C@H]2[C@@H]3CC=C4C[C@@H](OC(=O)N(CCCCNCC(F)CN)CC(F)CN)CC[C@]4(C)[C@H]3CC[C@]12C (stereo partly drawn) [SA87, (3S,8S,9S,10R,13R,14S,17R)-10,13-dimethyl-17-((R)-6-methylheptan-2-yl)-2,3,4,7,8,9,10,11,12,13,14,15,16,17-tetradecahydro-1H-cyclopenta[a]phenanthren-3-yl (3-amino-2-fluoropropyl)(4-((3-amino-2-fluoropropyl)amino)butyl)carbamate trihydrochloride] | 99.5 | 98.2 | 13346.1 ± 2590.8 | 3.2 ± 0.1 | 81.2 | 0.1 | 75 | 0.18
8 | CC(C)CCC[C@@H](C)[C@H]1CC[C@H]2[C@@H]3CC=C4C[C@@H](OC(=O)N(CCCCNCC(O)CN)CC(O)CN)CC[C@]4(C)[C@H]3CC[C@]12C (stereo partly drawn) [SA88, (3S,8S,9S,10R,13R,14S,17R)-10,13-dimethyl-17-((R)-6-methylheptan-2-yl)-2,3,4,7,8,9,10,11,12,13,14,15,16,17-tetradecahydro-1H-cyclopenta[a]phenanthren-3-yl (3-amino-2-hydroxypropyl)(4-((3-amino-2-hydroxypropyl)amino)butyl)carbamate trihydrochloride] | 99.1 | 99.8 | 17105.3 ± 7097.3 | 4.5 ± 0.2 | 89.4 | 0.19 | 75 | 0.13

From patent US20260109732A1, “LIPID AMINES” (ModernaTX, Inc., priority 2021, published 2026)
